For 18 molecules, IC50 results are on record in patent publication US20250215013A1, “SUBSTITUTED TRICYCLIC COMPOUNDS AS PARP INHIBITORS AND THE USE THEREOF” (IMPACT THERAPEUTICS (SHANGHAI), INC., priority 2022, published 2025).

The target in test [1] is recombinant poly(ADP-ribose) polymerase 2 (PARP2) (Homo sapiens, UniProt Q9UGN5). Briefly: PARP2 chemiluminescent assay. The class given is biochemical. Particulars: inhibition of PARP2 enzyme activity, chemiluminescence.
The next test relates to MDA-MB-436 cells. Briefly: Growth inhibition assay against BRCA mutant human breast cancer MDA-MB-436 cell line (CCK-8). The format is cell-based. The conditions noted are these: Homo sapiens, MDA-MB-436, […], proliferation of MDA-MB-436 cells, 7 days.
For test [2], the target named is recombinant poly(ADP-ribose) polymerase 1 (PARP1) (Homo sapiens (Human), UniProt P09874).
In another test the target is PDE3A (Homo sapiens (Human), UniProt Q14432). Nature of the test: PDE3A fluorescence polarization (FP) assay. The class given is biochemical. The conditions noted are these: PDE3A enzyme activity, FAM-cAMP substrate.
Test [3] addresses recombinant poly(ADP-ribose) polymerase 2 (PARP2). Nature of the test: PARP2 chemiluminescent assay. The conditions noted are these: inhibition of PARP2 enzyme activity, chemiluminescence. The class given is biochemical.

Sequence of PDE3A (Q14432 whole entry): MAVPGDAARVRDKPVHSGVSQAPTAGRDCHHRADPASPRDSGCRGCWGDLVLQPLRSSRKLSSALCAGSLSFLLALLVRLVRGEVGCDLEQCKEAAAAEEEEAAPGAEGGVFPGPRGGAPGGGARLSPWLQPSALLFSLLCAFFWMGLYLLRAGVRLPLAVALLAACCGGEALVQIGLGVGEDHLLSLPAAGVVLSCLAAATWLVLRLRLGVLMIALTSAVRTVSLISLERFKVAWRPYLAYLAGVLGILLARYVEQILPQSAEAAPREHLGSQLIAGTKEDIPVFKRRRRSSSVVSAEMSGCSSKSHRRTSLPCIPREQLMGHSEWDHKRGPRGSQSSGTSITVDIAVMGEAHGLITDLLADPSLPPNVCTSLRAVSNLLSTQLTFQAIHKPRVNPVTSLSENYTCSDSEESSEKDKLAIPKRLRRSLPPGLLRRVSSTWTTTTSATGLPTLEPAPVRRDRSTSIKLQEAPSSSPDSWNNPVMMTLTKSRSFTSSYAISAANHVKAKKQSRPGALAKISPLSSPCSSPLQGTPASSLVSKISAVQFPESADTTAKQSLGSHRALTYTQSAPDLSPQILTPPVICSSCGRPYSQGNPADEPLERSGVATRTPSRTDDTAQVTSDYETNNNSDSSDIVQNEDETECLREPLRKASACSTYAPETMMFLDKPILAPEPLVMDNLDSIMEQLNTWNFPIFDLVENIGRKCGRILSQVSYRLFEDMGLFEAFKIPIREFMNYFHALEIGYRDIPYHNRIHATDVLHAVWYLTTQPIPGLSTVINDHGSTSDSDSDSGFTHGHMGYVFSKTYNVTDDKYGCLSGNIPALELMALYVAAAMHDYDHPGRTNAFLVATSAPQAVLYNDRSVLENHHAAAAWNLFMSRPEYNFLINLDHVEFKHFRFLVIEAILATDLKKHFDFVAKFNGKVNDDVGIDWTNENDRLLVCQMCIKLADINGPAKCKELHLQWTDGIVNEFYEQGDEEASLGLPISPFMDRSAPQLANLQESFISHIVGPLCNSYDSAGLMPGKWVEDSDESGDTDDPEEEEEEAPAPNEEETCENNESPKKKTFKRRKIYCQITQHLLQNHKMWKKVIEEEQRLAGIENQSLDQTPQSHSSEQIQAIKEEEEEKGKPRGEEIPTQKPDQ
Sequence of recombinant poly(ADP-ribose) polymerase 1 (PARP1) (P09874 whole entry): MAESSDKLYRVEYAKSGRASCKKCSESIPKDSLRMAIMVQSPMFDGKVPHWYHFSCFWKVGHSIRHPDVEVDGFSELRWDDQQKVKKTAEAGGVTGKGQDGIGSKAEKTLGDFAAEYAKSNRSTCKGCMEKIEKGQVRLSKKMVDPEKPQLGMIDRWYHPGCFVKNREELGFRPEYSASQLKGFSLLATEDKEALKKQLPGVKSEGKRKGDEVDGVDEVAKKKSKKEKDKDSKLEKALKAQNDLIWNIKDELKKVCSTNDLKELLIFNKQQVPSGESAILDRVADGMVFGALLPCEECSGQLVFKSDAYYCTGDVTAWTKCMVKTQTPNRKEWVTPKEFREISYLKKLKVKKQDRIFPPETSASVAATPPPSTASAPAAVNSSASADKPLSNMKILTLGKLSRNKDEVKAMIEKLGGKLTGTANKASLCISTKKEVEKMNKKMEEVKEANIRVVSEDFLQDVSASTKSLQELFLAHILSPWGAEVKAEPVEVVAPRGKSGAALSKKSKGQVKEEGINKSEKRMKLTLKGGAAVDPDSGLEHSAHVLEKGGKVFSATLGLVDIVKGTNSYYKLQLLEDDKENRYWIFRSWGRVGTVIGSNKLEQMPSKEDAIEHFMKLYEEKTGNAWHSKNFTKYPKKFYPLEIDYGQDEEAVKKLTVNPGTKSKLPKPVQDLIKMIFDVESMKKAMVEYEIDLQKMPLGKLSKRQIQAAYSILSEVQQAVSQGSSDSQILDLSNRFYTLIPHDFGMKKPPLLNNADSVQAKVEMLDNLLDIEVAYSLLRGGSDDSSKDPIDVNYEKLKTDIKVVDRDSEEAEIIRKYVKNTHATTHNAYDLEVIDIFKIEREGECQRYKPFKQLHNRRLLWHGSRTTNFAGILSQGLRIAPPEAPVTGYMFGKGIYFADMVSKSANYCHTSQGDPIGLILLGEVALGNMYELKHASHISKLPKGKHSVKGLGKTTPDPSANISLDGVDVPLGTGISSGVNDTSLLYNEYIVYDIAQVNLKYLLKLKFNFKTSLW
Sequence of recombinant poly(ADP-ribose) polymerase 2 (PARP2) (Homo sapiens, UniProt Q9UGN5) (Q9UGN5 whole entry, looked up): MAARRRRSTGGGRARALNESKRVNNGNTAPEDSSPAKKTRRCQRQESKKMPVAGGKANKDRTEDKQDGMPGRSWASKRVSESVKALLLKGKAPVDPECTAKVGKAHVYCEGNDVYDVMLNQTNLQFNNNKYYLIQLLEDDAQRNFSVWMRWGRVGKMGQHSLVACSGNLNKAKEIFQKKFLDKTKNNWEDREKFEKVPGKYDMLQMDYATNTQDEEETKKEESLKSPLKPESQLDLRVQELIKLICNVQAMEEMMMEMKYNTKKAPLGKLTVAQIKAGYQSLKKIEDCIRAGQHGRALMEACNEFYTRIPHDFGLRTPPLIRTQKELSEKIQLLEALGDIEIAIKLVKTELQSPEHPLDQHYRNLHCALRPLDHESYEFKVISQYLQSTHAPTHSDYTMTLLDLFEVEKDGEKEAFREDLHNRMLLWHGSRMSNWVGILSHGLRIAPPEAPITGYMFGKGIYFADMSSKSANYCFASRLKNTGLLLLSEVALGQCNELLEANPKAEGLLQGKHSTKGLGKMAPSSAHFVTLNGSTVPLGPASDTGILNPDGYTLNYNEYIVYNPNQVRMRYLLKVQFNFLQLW
Protocol for PDE3A: A PDE3A fluorescence polarization (FP) assay in a multi-step format was performed using black, round bottom 384-well plates (Corning, 4514). The testing compounds were serially diluted from stock solutions to 11 concentrations with a 3-fold dilution factor using DMSO. Fifty nl of compound dilutions was mixed with 5 μl of reaction buffer (10 mM Tris-HCl, pH 7.2, 10 mM MgCl2, 0.05% NaN3, 0.1% phosphate-free BSA) containing 0.2 μM FAM-cAMP (BPS, 60200) and 2 nM PDE3A (Sino Biological, 11908-H20B1) enzyme, and incubated for 60 min at 25° C. Afterwards, 15 μl binding agent mixture (Molecular Devices, R8124) was added to each well and the plate was incubated for 60 min at 25° C. The plate was loaded to a BMG PHERAstar FSX to read Fluorescence Polarization (FP) values at a setting of: Ex: 485 nm and Em: 520 nm. Emission light intensity with polarizers parallel (Emi) and emission light intensity with polarizers perpendicular (Emi) were recorded. The Polarization (mP) values were calculated using the following formula: mP=(SignalEml−SignalEm⊥)/(SignalEml+SignalEm⊥).
• 1) The inhibition % of a compound dose is calculated as:
[formula] • wherein mPMin and mPMax refer to the polarization readings in the condition of substrate only and substrate+enzyme, respectively. • 2) The IC50 values were calculated from non-linear curve fitting using following regression equation using a commercial curve fitting software GraphPad Prism 9.2.0.
[formula] • wherein, X refers to Log of compound concentration and Y refers to % Inhibition.

For `CNC(=O)c1ccc(N2CCN(Cc3ccc4c(c3)[nH]c(=O)c3ccsc34)CC2)c(C)n1` [Example 1, 7-((4-(2-methyl-6-(methylcarbamoyl)pyridin-3-yl)piperazin-1-yl)methyl)thieno[3,2-c]quinolin-4(5H)-one], in test [1], the IC50 was 78 nM.
Still for that read-out and setting: to `CNC(=O)c1ccc(N2CCN(Cc3ccc4c(c3)[nH]c(=O)c3cscc34)CC2)c(C)n1` [Example 3, 7-((4-(2-methyl-6-(methylcarbamoyl)pyridin-3-yl)piperazin-1-yl)methyl)thieno[3,4-c]quinolin-4(5H)-one] belongs 18.3 nM; to `CNC(=O)c1ccc(N2CCN(Cc3ccc4c(c3)[nH]c(=O)c3sccc34)CC2)c(C)n1` [Example 5, 7-((4-(2-methyl-6-(methylcarbamoyl)pyridin-3-yl)piperazin-1-yl)methyl)thieno[2,3-c]quinolin-4(5H)-one], 10.1 nM; to `CNC(=O)c1ccc(N2CCN(Cc3ccc4c(c3)[nH]c(=O)c3cnn(C)c34)CC2)c(C)n1` [Example 8, 7-((4-(2-methyl-6-(methylcarbamoyl)pyridin-3-yl)piperazin-1-yl)methyl)-1-methyl-1,5-dihydro-4H-pyrazolo[4,3-c]quinolin-4-one], 54.9 nM.
Still for that read-out and setting: as for `CNC(=O)c1ccc(N2CCN(Cc3cc(F)c4c(c3)[nH]c(=O)c3cscc34)CC2)c(C)n1` [Example 21, 7-((4-(2-methyl-6-(methylcarbamoyl)pyridin-3-yl)piperazin-1-yl)methyl)-9-fluorothieno[3,4-c]quinolin-4(5H)-one], the figure is 13.3 nM.
For the molecule `CNC(=O)c1ccc(N2CCN(Cc3cc(F)c4c(c3)[nH]c(=O)c3sccc34)CC2)c(C)n1` [Example 38, 9-fluoro-7-((4-(2-methyl-6-(methylcarbamoyl)pyridin-3-yl)piperazin-1-yl)methyl)thieno[2,3-c]quinolin-4(5H)-one], the values for the IC50 (in the test on MDA-MB-436 cells; in test [1]) were 0.00373 µM and 16.9 nM, respectively.
For the molecule `CNC(=O)c1ccc(N2CCN(Cc3ccc4c([nH]c(=O)n5cc(C)nc45)c3F)CC2)c(F)n1` [Example 140, 8-((4-(2-fluoro-6-(methylcarbamoyl)pyridin-3-yl)piperazin-1-yl)methyl)-2-methyl-7-fluoroimidazo[1,2-c]quinazolin-5(6H)-one], the IC50 is 0.00224 µM in the test with MDA-MB-436 cells, 0.00084 µM in test [2], 28.9 µM against PDE3A and 1250 nM in test [3].
For `CNC(=O)c1ccc(N2CCN(Cc3ccc4c([nH]c(=O)n5c(C)cnc45)c3F)CC2)c(F)n1` [Example 141, 8-((4-(2-fluoro-6-(methylcarbamoyl)pyridin-3-yl)piperazin-1-yl)methyl)-3-methyl-7-fluoroimidazo[1,2-c]quinazolin-5(6H)-one], in that order: 0.0246 µM, 0.00129 µM, more than 25 µM and 1890 nM.
For `CNC(=O)c1ccc(N2CCN(Cc3ccc4c(c3)[nH]c(=O)c3cocc34)CC2)c(F)n1` [Example 143, 7-((4-(2-fluoro-6-(methylcarbamoyl)pyridin-3-yl)piperazin-1-yl)methyl)furo[3,4-c]quinolin-4(5H)-one], in that order: 0.0035 µM, 0.00046 µM, 1.2 µM and 166 nM.
As for `CNC(=O)c1ccc(C2=CCN(Cc3ccc4c([nH]c(=O)c5c(C)cnn54)c3F)CC2)c(F)n1` [Example 165, 6-fluoro-7-((2-fluoro-6-methylcarbamoyl-3′,6′-dihydro-[3,4′-bipyridin]-1′(2′H)-yl)methyl)-3-methylpyrazolo[1,5-a]quinoxalin-4(5H)-one], the IC50 in the test on MDA-MB-436 cells is 0.00275 µM; in test [2], 0.00026 µM; in test [1], more than 3330 nM.
For the molecule `CNC(=O)c1ccc(N2CCN(Cc3cc4[nH]c(=O)c5c(C)cnn5c4cc3F)CC2)c(F)n1` [Example 168, 8-fluoro-7-((4-(2-fluoro-6-(methylcarbamoyl)pyridin-3-yl)piperazin-1-yl)methyl)-3-methylpyrazolo[1,5-a]quinoxalin-4(5H)-one], the IC50 was 0.00802 µM in the test on MDA-MB-436 cells, 0.00061 µM in test [2], more than 30 µM on PDE3A and 145 nM in test [3].
For `CNC(=O)c1ccc(N2CCN(Cc3cc(F)c4c(c3)[nH]c(=O)c3c(F)cnn34)CC2)c(F)n1` [Example 177, 3,9-difluoro-7-((4-(2-fluoro-6-(methylcarbamoyl)pyridin-3-yl)piperazin-1-yl)methyl)pyrazolo[1,5-a]quinoxalin-4(5H)-one], in that order: 0.00158 µM, 0.00032 µM, 0.63 µM and 93.5 nM.
The matching figures for `CNC(=O)c1ccc(N2CCN(Cc3ccc4c([nH]c(=O)c5c(C(F)(F)F)cnn54)c3F)CC2)c(F)n1` [Example 179, 7-((4-(2-fluoro-6-(methylcarbamoyl)pyridin-3-yl)piperazin-1-yl)methyl)-3-trifluoromethyl-6-fluoropyrazolo[1,5-a]quinoxalin-4(5H)-one]: 0.00449 µM, 0.0005 µM, more than 30 µM and 67.1 nM.
The matching figures for `CCNC(=O)c1ccc(N2CCN(Cc3ccc4c([nH]c(=O)c5c(F)cnn54)c3F)CC2)c(F)n1` [Example 180, 7-((4-(2-fluoro-6-(ethylcarbamoyl)pyridin-3-yl)piperazin-1-yl)methyl)-3,6-difluoropyrazolo[1,5-a]quinoxalin-4(5H)-one]: 0.00124 µM, 0.00024 µM, more than 30 µM and 431 nM.
In the case of `O=C(NC1CC1)c1ccc(N2CCN(Cc3ccc4c([nH]c(=O)c5c(F)cnn54)c3F)CC2)c(F)n1` [Example 181, 7-((4-(2-fluoro-6-(cyclopropylcarbamoyl)pyridin-3-yl)piperazin-1-yl)methyl)-3,6-difluoropyrazolo[1,5-a]quinoxalin-4(5H)-one], the IC50 in the test with MDA-MB-436 cells is 0.0019 µM; in test [2] it was 0.00023 µM; against PDE3A, more than 30 µM; in test [3], 315 nM.
For `CNC(=O)c1ccc(N2CCN(Cc3cc4[nH]c(=O)c5c(F)cnn5c4cc3F)CC2)c(F)n1` [Example 182, 7-((4-(2-fluoro-6-(methylcarbamoyl)pyridin-3-yl)piperazin-1-yl)methyl)-3,8-difluoropyrazolo[1,5-a]quinoxalin-4(5H)-one], in that order: 0.0014 µM, 0.00032 µM, more than 30 µM and 93.5 nM.
With `CNC(=O)c1ccc(N2CCN(Cc3cc4[nH]c(=O)c5c(F)cnn5c4cc3F)CC2)c(C)n1` [Example 183, 7-((4-(2-methyl-6-(methylcarbamoyl)pyridin-3-yl)piperazin-1-yl)methyl)-3,8-difluoropyrazolo[1,5-a]quinoxalin-4(5H)-one], the IC50 with MDA-MB-436 cells amounted to 0.00176 µM; in test [2] it was 0.00028 µM; at PDE3A, 1.59 µM; in test [3], 1390 nM.
Regarding `CNC(=O)c1ccc(C2=CCN(Cc3ccc4c([nH]c(=O)c5c(F)cnn54)c3F)CC2)c(F)n1` [Example 197, 7-((2-fluoro-6-methylcarbamoyl-3′,6′-dihydro-[3,4′-bipyridin]-1′(2′H)-yl)methyl)-3,6-difluoropyrazolo[1,5-a]quinoxalin-4(5H)-one], the IC50 worked out at 0.00119 µM in the test on MDA-MB-436 cells, 0.00015 µM in test [2] and 774 nM in test [1].
